Patent publication US20150133493A1, “COUMARIN-BASED COMPOUNDS FOR THE TREATMENT OF ALZHEIMER'S DISEASE AND CANCER” (Sloan-Kettering Institute for Cancer Research, priority 2008, published 2015)
Entries after “also recorded” stand apart in the source; their conditions may differ.

Target: T1, γ-secretase active site (Homo sapiens, UniProt P49768)
T1 construct: endogenous in cells; host or cells: HeLa membrane
Assay: Photolabeling of the γ-secretase active site (PS1-NTF) in HeLa membrane with probes L646, GY4, JC8, L505
Type: binding
Conditions: L458 and Compound E at 2 μM, CS-1 up to 100 μM
Method: FIG. 4. Kinetic analysis of allosteric GSIs and evaluation of their effect on the γ-secretase active site architecture. (a) Kinetic analysis of CS1 was performed using our modified version of a previously reported in vitro γ-secretase activity assay. The inhibition kinetics were analyzed by using a non-linear curve fit with the Michaelis-Menten equation. Upper right inset: we replotted slopes against the inhibitor concentrations after performing double reciprocal conversion. (b) Schematic representation of the allosteric binding of the di-coumarin compounds to γ-secretase. This binding ultimately causes an alteration at the active site of γ-secretase. Black rectangle represents the coumarin-dimer compound. (c) The binding of L458 to the active site of γ-secretase and its interaction at various subpockets within the enzyme. (d) Chemical structure of the four photoaffinity probes utilized in the characterization of CS-1 effect on active site architecture. Hydroxyethylamine and benzophenone moieties are marked by blue and red, respectively. (e) Evaluation of CS-1 effect on the photolabeling of four probes. […] (f) Evaluation of CS-2 effect on the active site photolabeling by L505 and GY4. (g) Effect of Compound E on active site photolabling. […] Blotting was performed for PS1-NTF. The photolabeling blots are representative and were performed in triplicate.
We hypothesized that the allosteric binding of the di-coumarin compounds alters the conformation of the active site of γ-secretase and thereby preferentially affects the Aβ42 site cleavage (FIG. 4b). This raised the technical issue of how to probe the contours of the enzymatic active site. Although the structure of γ-secretase has been determined by cryoelectron microscopy (23), the resolution attained is not sufficient to investigate subtle changes within the active site. Consequently, we developed a series of active-site directed inhibitors that incorporate a photoreactive benzophenone entity into varied positions. Using these photoreactive probes, we assessed the effect of the di-coumarin inhibitor binding on the active site of γ-secretase. Since the efficiency of photoinsertion depends on the orientation of the probe and the proximity of residues within the active site, conformational change of the active site can alter the orientation of the probe and contact residues and lead to altered cross-linking efficiencies. Therefore, multiple photoactivatable, active-site directed GSIs will provide a practical approach to evaluate the changes within the active site following allosteric di-coumarin binding.
L458 contains a hydroxyethylamine transition-state isostere that mimics the tetrahedral intermediate of aspartyl proteases and this moiety hydrogen bonds with the catalytic aspartate residues of γ-secretase (20). According to the nomenclature of Schechter and Berger (24), L458 contains the P2, P1, P1′, P2′ and P3′ residues that putatively bind to the S2, S1, S1′, S2′ and S3′ subsites, respectively, within the active site of γ-secretase (FIG. 4c). We have developed a series of biotinylated, photoactivatable inhibitors based on the core structure of L458 that allow us to probe the sub-pockets of the γ-secretase active site (3, 25-26). These inhibitors all have an individual benzophenone group incorporated into L458 at either the P2, P1, P1′, or P3′ position and are referred to as L646, GY4, JC8 and L505 (FIG. 4d). Each of these inhibitors interacts and labels the S2, S1, S1′, and S3′ subsites, respectively, within the γ-secretase complex (FIG. 4c-d).
HeLa membrane was incubated with CHAPSO detergent and photoaffinity probe in the presence or absence of excess L458 or CS-1. Labeled presenilin was isolated using streptavidin beads, separated by SDS-PAGE and subsequently western blotted using anti-PS1-NTF antibodies. Again, presenilin is believed to contain the active site of γ-secretase, therefore we examined PS1 photolabeling. […]

SMILES: C[C@H](NC(=O)Cc1cc(F)cc(F)c1)C(=O)N[C@H]1N=C(c2ccccc2)c2ccccc2N(C)C1=O [Compound E]
- effect on JC-8 photolabeling of PS1-NTF (S1′ subsite): completely suppressed; also recorded: nonselectively blocked
- effect on L646 photolabeling of PS1-NTF (S2 subsite): completely suppressed; also recorded: nonselectively blocked
- effect on GY-4 photolabeling of PS1-NTF (S1 subsite) (CS-2 at 100 μM): completely suppressed; also recorded: nonselectively blocked
- effect on L505 photolabeling of PS1-NTF (S3′ subsite) (CS-2 at 100 μM): completely suppressed; also recorded: nonselectively blocked
